Source: US9920032B2, “Heterocyclic compounds useful as pim kinase inhibitors” (Incyte Corporation, priority 2015, dated 2018)

Key:
Type in all cases: biochemical
[1] = target: Pim-3 (Homo sapiens (Human), UniProt Q86V86); assay: Pim-3 kinase assay; settings: 1 mM ATP; read-out: PIM3 IC50
Method: (§1) Pim-1 and Pim-3 kinase assays—20 μL reactions were run in white 384 well polystyrene plates dotted with 0.8 μL compound/DMSO in the assay buffer (50 mM Tris, pH 7.5, 0.01% Tween-20, 5 mM mgCl2, 0.01% BSA, 5 mM DTT), containing 0.05 μM Biotin-labeled BAD peptide substrate (AnaSpec 62269), 1 mM ATP, and 2.5 pM (Pim-1, Invitrogen PV3503) or 1.25 pM (Pim-3, Millipore 14-738) enzyme for 1 h at 25° C. Reactions were stopped by addition of 10 μL STOP Buffer (150 mM Tris, pH=7.5, 150 mM NaCl, 75 mM EDTA, 0.01% Tween-20, 0.3% BSA,) supplemented with Phospho-Bad (Ser112) Antibody (Cell Signaling 9291) diluted 666-fold, and Streptavidin donor beads (PerkinElmer 6760002) along with Protein-A acceptor beads (PerkinElmer 6760137) at […]. Supplementation of the STOP buffer with beads and stopping the reactions were done under reduced light. Prior to the stopping reactions STOP buffer with beads was preincubated for 1 h in the dark at room temperature. After stopping the reactions, plates were incubated for 1 h in the dark at room temperature before reading on a PHERAstar FS plate reader (BMG Labtech) under reduced light.

[2] = target: Pim-1 (Homo sapiens (Human), UniProt P11309); assay: Pim-1 kinase assay; settings: 1 mM ATP; read-out: PIM1 IC50
Chain of Pim-1 (P11309 whole entry): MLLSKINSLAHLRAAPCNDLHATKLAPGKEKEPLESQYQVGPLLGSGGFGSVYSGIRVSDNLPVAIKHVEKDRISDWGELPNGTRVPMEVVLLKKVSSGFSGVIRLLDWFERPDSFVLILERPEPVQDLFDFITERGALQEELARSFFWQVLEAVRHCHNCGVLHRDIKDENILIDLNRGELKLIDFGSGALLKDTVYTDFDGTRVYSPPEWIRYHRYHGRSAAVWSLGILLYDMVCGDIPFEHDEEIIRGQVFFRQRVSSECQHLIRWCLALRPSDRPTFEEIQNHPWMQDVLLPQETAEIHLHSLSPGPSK
Method: as §1

[3] = target: Pim-2 (Homo sapiens (Human), UniProt Q9P1W9); assay: Pim-2 kinase assay; settings: 1 mM ATP; read-out: PIM2 IC50
Chain of Pim-2 (Q9P1W9 whole entry): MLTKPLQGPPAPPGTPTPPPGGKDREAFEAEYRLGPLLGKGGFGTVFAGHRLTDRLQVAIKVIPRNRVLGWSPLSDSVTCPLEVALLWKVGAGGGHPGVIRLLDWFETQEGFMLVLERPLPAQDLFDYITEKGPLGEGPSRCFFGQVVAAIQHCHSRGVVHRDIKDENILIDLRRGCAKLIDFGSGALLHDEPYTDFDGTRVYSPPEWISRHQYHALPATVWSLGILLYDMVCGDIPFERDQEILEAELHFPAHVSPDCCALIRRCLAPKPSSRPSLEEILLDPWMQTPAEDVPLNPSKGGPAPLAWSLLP
Method: Pim-2 kinase assay—20 μL reactions were run in white 384 well polystyrene plates dotted with 0.8 μL compound/DMSO in the assay buffer (50 mM Tris, pH 7.5, 0.01% Tween-20, 5 mM mgCl2, 0.01% BSA, 5 mM DTT), containing 0.05 μM Fluorescein-labeled CREBtide peptide substrate (Invitrogen PV3508), 1 mM ATP, and 1 nM enzyme (Invitrogen PV3649) for 2 h at 25° C. Reactions were stopped by addition of 10 μL TR-FRET Dilution Buffer (Invitrogen PV3574) with 30 mM EDTA and 1.5 nM LanthaScreen Tb-CREB pSer133 antibody (Invitrogen PV3566). After 30 min. incubation at room temperature, plates were read on a PHERAstar FS plate reader (BMG Labtech).

Compound | IC50 [1] [nM] | IC50 [2] [nM] | IC50 [3] [nM]
C[C@@H]1C[C@H](N)C[C@H](c2ccncc2NC(=O)c2ccc(F)c3cc(N4CCCN(S(C)(=O)=O)CC4)cnc23)C1 [Example 124, N-(4-((1R,3S,5S)-3-Amino-5-methylcyclohexyl)pyridin-3-yl)-5-fluoro-3-(4-(methylsulfonyl)-1,4-diazepan-1-yl)quinoline-8-carboxamide] | ≤ 10 | ≤ 10 | ≤ 100
CO[C@H]1C[C@@H](C)N(c2cnc3c(C(=O)Nc4cnccc4[C@@H]4C[C@H](C)C[C@H](N)C4)ccc(F)c3c2)C1 [Example 158, N-(4-((1R,3S,5S)-3-Amino-5-methylcyclohexyl)pyridin-3-yl)-5-fluoro-3-((2R,4S)-4-methoxy-2-methylpyrrolidin-1-yl)quinoline-8-carboxamide] | ≤ 10 | ≤ 10 | ≤ 100
C[C@@H]1C[C@H](N)C[C@H](c2ccncc2NC(=O)c2ccc(F)c3cc(C4CCOCC4)cnc23)C1 [Example 31, N-{4-[(1R,3S,5S)-3-Amino-5-methylcyclohexyl]pyridin-3-yl}-5-fluoro-3-(tetrahydro-2H-pyran-4-yl)quinoline-8-carboxamide] | ≤ 10 | ≤ 10 | 100 to 1000
C[C@@H]1C[C@H](N)C[C@H](c2ccncc2NC(=O)c2ccc(F)c3cc(N(C)c4ccncc4F)cnc23)C1 [Example 145, N-(4-((1R,3S,5S)-3-Amino-5-methylcyclohexyl)pyridin-3-yl)-5-fluoro-3-((3-fluoropyridin-4-yl)(methyl)amino)quinoline-8-carboxamide] | ≤ 10 | ≤ 10 | ≤ 100
CCOC1CN(c2cnc3c(C(=O)Nc4cnccc4[C@@H]4C[C@H](C)C[C@H](N)C4)ccc(F)c3c2)C1 [Example 122, N-(4-((1R,3S,5S)-3-Amino-5-methylcyclohexyl)pyridin-3-yl)-3-(3-ethoxyazetidin-1-yl)-5-fluoroquinoline-8-carboxamide] | ≤ 10 | ≤ 10 | ≤ 100
CC(C)CN1CCN(c2cnc3c(C(=O)Nc4cnccc4[C@@H]4C[C@H](C)C[C@H](N)C4)ccc(F)c3c2)CC1=O [Example 117, N-(4-((1R,3S,5S)-3-Amino-5-methylcyclohexyl)pyridin-3-yl)-5-fluoro-3-(4-isobutyl-3-oxopiperazin-1-yl)quinoline-8-carboxamide] | ≤ 10 | ≤ 10 | ≤ 100
C[C@@H]1C[C@H](N)C[C@H](c2ccncc2NC(=O)c2ccc(F)c3cc(N4CC[C@H](C#N)C4)cnc23)C1 [Example 7, N-{4-[(1R,3S,5S)-3-Amino-5-methylcyclohexyl]pyridin-3-yl}-3-[(3S)-3-cyanopyrrolidin-1-yl]-5-fluoroquinoline-8-carboxamide] | ≤ 10 | ≤ 10 | ≤ 100
C[C@@H]1C[C@H](N)C[C@H](c2ccncc2NC(=O)c2cccc3cc(N4CCOC[C@H]4C)cnc23)C1 [Example 67, N-(4-((1R,3S,5S)-3-Amino-5-methylcyclohexyl)pyridin-3-yl)-3-((R)-3-methylmorpholino)quinoline-8-carboxamide] | ≤ 10 | ≤ 10 | ≤ 100
CCN(C)c1cnc2c(C(=O)Nc3cnccc3[C@@H]3C[C@H](C)C[C@H](N)C3)ccc(F)c2c1 [Example 20, N-(4-((1R,3S,5S)-3-Amino-5-methylcyclohexyl)pyridin-3-yl)-3-(ethyl(methyl)amino)-5-fluoroquinoline-8-carboxamide] | ≤ 10 | ≤ 10 | ≤ 100
C[C@@H]1C[C@H](N)C[C@H](c2ccncc2NC(=O)c2ccc(F)c3cc(N4CCC(C)(O)CC4)cnc23)C1 [Example 41, N-(4-((1R,3S,5S)-3-Amino-5-methylcyclohexyl)pyridin-3-yl)-5-fluoro-3-(4-hydroxy-4-methylpiperidin-1-yl)quinoline-8-carboxamide] | 10 to 50 | 10 to 50 | 100 to 1000
C[C@@H]1C[C@H](N)C[C@H](c2ccncc2NC(=O)c2ccc(F)c3cc(N4CCO[C@@H](C)C4)cnc23)C1 [Example 38, N-(4-((1R,3S,5S)-3-Amino-5-methylcyclohexyl)pyridin-3-yl)-5-fluoro-3-((S)-2-methylmorpholino)quinoline-8-carboxamide] | 10 to 50 | ≤ 10 | 100 to 1000
C[C@@H]1C[C@H](N)C[C@H](c2ccncc2NC(=O)c2ccc(F)c3cc(N4CCOC[C@@H]4C)cnc23)C1 [Example 33, N-(4-((1R,3S,5S)-3-Amino-5-methylcyclohexyl)pyridin-3-yl)-5-fluoro-3-((S)-3-methylmorpholino)quinoline-8-carboxamide] | ≤ 10 | ≤ 10 | ≤ 100
C[C@@H]1C[C@H](N)C[C@H](c2ccncc2NC(=O)c2ccc(F)c3cc(N4CC(=O)N5CCCC[C@@H]5C4)cnc23)C1 [Example 100, N-(4-((1R,3S,5S)-3-Amino-5-methylcyclohexyl)pyridin-3-yl)-5-fluoro-3-((R)-4-oxodihydro-1H-pyrido[1,2-a]pyrazin-2(6H,7H,8H,9H,9aH)-yl)quinoline-8-carboxamide] | ≤ 10 | ≤ 10 | ≤ 100
C[C@@H]1C[C@H](N)C[C@H](c2ccncc2NC(=O)c2ccc(F)c3cc(-c4c(F)cc(O)cc4F)cnc23)C1 [Example 18, N-{4-[(1R,3S,5S)-3-Amino-5-methylcyclohexyl]pyridin-3-yl}-3-(2,6-difluoro-4-hydroxyphenyl)-5-fluoroquinoline-8-carboxamide] | ≤ 10 | ≤ 10 | ≤ 100
CC(C)[C@@H](C)Nc1cnc2c(C(=O)Nc3cnccc3[C@@H]3C[C@H](C)C[C@H](N)C3)ccc(F)c2c1 [Example 54, N-(4-((1R,3S,5S)-3-amino-5-methylcyclohexyl)pyridin-3-yl)-5-fluoro-3-((R)-3-methylbutan-2-ylamino)quinoline-8-carboxamide] | ≤ 10 | ≤ 10 | 100 to 1000
COc1ccc(N(C)c2cnc3c(C(=O)Nc4cnccc4[C@@H]4C[C@H](C)C[C@H](N)C4)ccc(F)c3c2)c(C)n1 [Example 144, N-(4-((1R,3S,5S)-3-Amino-5-methylcyclohexyl)pyridin-3-yl)-5-fluoro-3-((6-methoxy-2-methylpyridin-3-yl)(methyl)amino)quinoline-8-carboxamide] | ≤ 10 | ≤ 10 | ≤ 100
C[C@@H]1C[C@H](N)C[C@H](c2ccncc2NC(=O)c2ccc(F)c3cc(N[C@@H](C)C4CC4)cnc23)C1 [Example 52, N-(4-((1R,3S,5S)-3-Amino-5-methylcyclohexyl)pyridin-3-yl)-3-((S)-1-cyclopropylethylamino)-5-fluoroquinoline-8-carboxamide] | 10 to 50 | ≤ 10 | 1000 to 10000
C[C@@H]1C[C@H](N)C[C@H](c2ccncc2NC(=O)c2ccc(F)c3cc(N(C)c4ncccc4OC(F)F)cnc23)C1 [Example 139, N-(4-((1R,3S,5S)-3-Amino-5-methylcyclohexyl)pyridin-3-yl)-3-((3-(difluoromethoxy)pyridin-2-yl)(methyl)amino)-5-fluoroquinoline-8-carboxamide] | ≤ 10 | ≤ 10 | ≤ 100
C[C@@H]1C[C@H](N)C[C@H](c2ccncc2NC(=O)c2ccc(F)c3cc(N4CC5(CC(O)C5)C4)cnc23)C1 [Example 103, N-(4-((1R,3S,5S)-3-Amino-5-methylcyclohexyl)pyridin-3-yl)-5-fluoro-3-(6-hydroxy-2-azaspiro[3.3]heptan-2-yl)quinoline-8-carboxamide] | ≤ 10 | ≤ 10 | ≤ 100
C[C@@H]1C[C@H](N)C[C@H](c2ccncc2NC(=O)c2ccc(F)c3cc(N4CCCC[C@@H]4C)cnc23)C1 [Example 170, N-(4-((1R,3S,5S)-3-Amino-5-methylcyclohexyl)pyridin-3-yl)-5-fluoro-3-((S)-2-methylpiperidin-1-yl)quinoline-8-carboxamide] | 10 to 50 | ≤ 10 | 100 to 1000
C[C@@H]1C[C@H](N)C[C@H](c2ccncc2NC(=O)c2ccc(F)c3cc(N4CC(C)(C)C4)cnc23)C1 [Example 116, N-(4-((1R,3S,5S)-3-Amino-5-methylcyclohexyl)pyridin-3-yl)-3-(3,3-dimethylazetidin-1-yl)-5-fluoroquinoline-8-carboxamide] | ≤ 10 | ≤ 10 | ≤ 100
